Results published in patent US20230293519A1, “INTEGRIN INHIBITORS AND USES THEREOF IN COMBINATION WITH OTHER AGENTS” (Pliant Therapeutics, Inc., priority 2021, published 2023).

Assays:
lung Col1a1 expression = assay: Precision cut lung slices of mice under chronic bleomycin exposure (vs pirfenidone and nintedanib); format: cell-based, mouse; settings: slices cultured 7 days; nintedanib and pirfenidone at 10x therapeutic concentrations
Method: Mice (C57BL/6) were administered 3 U/kg of bleomycin (Teva Pharmaceuticals; North Wales, PA) on Day 0 and 1 U/kg of bleomycin on days 14, 28, 42 and 56 via oropharyngeal aspiration while under anesthesia. At day 70, 14 days following the final bleomycin insult, precision cut lung slices were obtained. Following euthanization, 2% low gelling temp agarose was injected into the mouse lungs via the trachea. […] The lobes were then subjected to precision slicing to obtain samples for culture using a microtome (Compresstome VF-300-0Z, Precisionary; Greenville, NC). Individual slices were distributed in a multiwell culture plate and cultured for 7 days under control (DMSO) and test compound conditions. The viability of the slices over the course of culturing was confirmed by WST-1 assay of mitochondrial activity.
During the culture period, slices in the control group were treated with DMSO and slices in the test group were treated with a DMSO solution of one of: compound 5; nintedanib; pirfenidone; a combination of nintedanib and compound 5; a combination of pirfenidone and compound 5; or the small molecule ALK5 inhibitor. Compound 5 was […] effective to equal or exceed its respective IC50 values at αvβ6 and αvβ1. The small molecule ALK5 inhibitor was analyzed at 10x its reported IC50 value. Nintendanib and pirfenidone were analyzed at concentrations 10x their reported therapeutic concentrations.

COL1A1 expression = assay: PCLS from human IPF lung tissue, 7 days: COL1A1 expression; format: cell-based; settings: Compound 5 200 nM, nintedanib 75 nM, pirfenidone 50 µM, 5-7 IPF lungs
Method: PCLS from 5-7 idopathic pulmonary fibrosis (IPF) lung tissue samples were cultured for seven days with one of: DMSO; Compound 5 at 200 nM; nintedanib at 75 nM; pirfenidone at 50 µm; a combination of Compound 5 at 200 nM and nintedanib at 75 nM; a combination of Compound 5 at 200 nM and pirfenidone at 50 µm; or an Alk5 inhibitor at 1 µm. […] FIG. 6D is a bar graph showing relative expression of COL1A1 in precision cut lung slices (PCLS) from idopathic pulmonary fibrosis (IPF) lung tissue upon exposure to Comopund 5, clinical standard of care compounds nintedanib (Nin) and pirfenidone (Pirf), and an ALK5 inhibitor, all versus DMSO control.
PCLS from a single IPF lung tissue sample were cultured for seven days with Compound 5 at concentrations of 200 pM, 2 nM, 60 nM, 200 nM, and 1 µM, along with 0.1% DMSO control and an Alk5 inhibitor at 1 µM. […] COL1A1 expression is also graphed for the PCLS in the presence of 0.1% DMSO control, and an Alk5 inhibitor at 1 µM.

[1] = test system: Type I Collagen gene Col1a1 expression; assay: Precision cut lung slices of mice under acute bleomycin exposure; format: cell-based, mouse; settings: acute bleomycin injured lung slices
Method: Mice (C57BL/6) were administered 3 U/kg of bleomycin (Teva Pharmaceuticals; North Wales, PA) on day 0 via oropharyngeal aspiration while under anesthesia. On day 14, precision cut lung slices were obtained. Following euthanization, 2% low gelling temp agarose was injected into the mouse lungs via the trachea. […] The lobes were then subjected to precision slicing to obtain samples for culture using a microtome (Compresstome VF-300-0Z, Precisionary; Greenville, NC). Individual slices were distributed in a multiwell culture plate and cultured for 3 days under control (DMSO) and test compound conditions.

[2] = test system: fibrosis-related gene expression in explanted human lung tissue from patients with idiopathic pulmonary fibrosis; assay: nCounter Fibrosis Panel gene expression in precision cut lung slices from IPF explants; format: cell-based; settings: IPF PCLS, 7 days, vs DMSO
Text: Fibrosis-related gene expression in explanted human lung tissue from patients with idiopathic pulmonary fibrosis was examined in order to determine what impact combining Compound 5 treatment with standard-of-care drugs nintedanib or pirfenidone, has on the expression of such genes.
Samples used for this analysis are a subset (n = 4 of 7) of the lungs previously reported on in Decaris et al., Respir Res (2021) 22:265 (FIGS. 6 A and B). Briefly, tissue samples from patients with IPF were acquired at the time of lung transplantation. Precision cut lung slices were generated from the explants and cultured for 7 days in the presence of inhibitors (Compound 5, nintedanib, pirfenidone) at clinically relevant concentrations or vehicle (DMSO). Treated slices were lysed in mRNA-compatible buffer for gene expression analysis. For this study, the lysate from n = 6 slices per treatment per lung were pooled for analysis using the nCounter Fibrosis Panel (Nanostring) on the nCounter Max analyzer (Nanostring). This commercially available panel of 770 genes includes genes related to initial tissue damage response, chronic inflammation, proliferation of pro-fibrotic cells, and tissue modification leading to fibrotic disease. Technical quality control and normalization of raw Nanostring mRNA count data was performed using an R framework developed by Bhattacharya et al. (Bhattacharya A. et al., Brief Bioinform. 2021 May 20;22(3):bbaa163). The R packages limma (see URL www.bioconductor.org/packages/release/bioc/html/limma.html) and voom (Law, C.W. et al., Genome Biol. 2014 Feb 3;15(2):R29) were used to detect differentially expressed genes. Benjamini-Hochberg False Discovery Rate (FDR = 5%) was used to adjust p-values for multiple comparisons.

COC(=O)c1ccc2c(c1)NC(=O)/C2=C(\Nc1ccc(N(C)C(=O)CN2CCN(C)CC2)cc1)c1ccccc1 [nintedanib, 3-Z-[1-(4-(N-((4-methyl-piperazin-1-yl)-methylcarbonyl)-N-methyl-amino)-anilino)-1-phenyl-methylene]-6-methoxycarbonyl-2-indolinone]
lung Col1a1 expression vs DMSO control (lung Col1a1 expression): slight increase
reduction of COL1A1 expression (COL1A1 expression): did not significantly reduce
fold increase in concentration over compound 5 needed to reduce lung slice Col1a1 expression by 50% [1]: 5.2 fold
% Reduction of APOC2 expression [2]: 16.88%
% Reduction of CDH2 expression [2]: -9.99%
% Reduction of COL1A1 expression [2]: 27.60%
% Reduction of COL4A2 expression [2]: 31.55%
% Reduction of FAP expression [2]: 35.72%
% Reduction of FCGR3A/B expression [2]: 33.44%
% Reduction of ITGB3 expression [2]: 16.60%
% Reduction of LOX expression [2]: 40.76%
% Reduction of LOXL2 expression [2]: 15.99%
% Reduction of NID1 expression [2]: 26.59%
% Reduction of PDGFRB expression [2]: 42.09%
% Reduction of POSTN expression [2]: 38.94%
% Reduction of SERPINE1 expression [2]: 9.75%
% Reduction of SERPINH1 expression [2]: 15.02%
% Reduction of SPP1 expression [2]: 59.73%
% Reduction of TGFB1 expression [2]: 21.04%
% Reduction of THBS2 expression [2]: 25.58%
logFC of ACTA2 expression [2]: 0.6841
logFC of ACVRL1 expression [2]: -1.329
logFC of ADH1B expression [2]: 0.8975
logFC of ADH1C expression [2]: 0.9337
logFC of ALDH7A1 expression [2]: 0.7402
logFC of AMOTL2 expression [2]: 0.5767
logFC of CCL19 expression [2]: 0.789
logFC of CD34 expression [2]: -1.516
logFC of CDH5 expression [2]: -2.328
logFC of CETP expression [2]: -1.732
logFC of CFTR expression [2]: 0.8907
logFC of COL6A5 expression [2]: 0.6309
logFC of COL10A1 expression [2]: -1.169
logFC of COX4I2 expression [2]: -2.07
logFC of CXCL10 expression [2]: -1.71
logFC of CXCR4 expression [2]: -1.727
logFC of CYP2J2 expression [2]: 1.025
logFC of DLL4 expression [2]: -2.786
logFC of ELN expression [2]: 0.8689
logFC of FLT1 expression [2]: -3.369
logFC of FLT4 expression [2]: -1.476
logFC of FST expression [2]: 1.092
logFC of GPX2 expression [2]: 1.178
logFC of IGF1 expression [2]: 0.632
logFC of KLF5 expression [2]: 0.8124
logFC of LAMA3 expression [2]: 0.6871
logFC of MASP1 expression [2]: 0.8164
logFC of MET expression [2]: 0.7131
logFC of MMP8 expression [2]: -1.053
logFC of MMP9 expression [2]: -1.1396
logFC of MMP11 expression [2]: -1.002
logFC of MMP12 expression [2]: -1.411
logFC of NOS3 expression [2]: -1.356
logFC of NOTCH4 expression [2]: -1.605
logFC of OCLN expression [2]: 0.6026
logFC of PECAM1 expression [2]: -1.967
logFC of PYGM expression [2]: 0.6237
logFC of TEK expression [2]: -1.206
logFC of TPSAB1/B2 expression [2]: -1.195
logFC of WWC1 expression [2]: 0.7518

Cc1ccc(=O)n(-c2ccccc2)c1 [pirfenidone, 5-methyl-1phenyl-2-1(H)-pyridone]
lung Col1a1 expression vs DMSO control (lung Col1a1 expression): slight increase
reduction of COL1A1 expression (COL1A1 expression): did not significantly reduce
fold increase in concentration over compound 5 needed to reduce lung slice Col1a1 expression by 50% [1]: 3,940 fold
% Reduction of CDH2 expression [2]: -7.12%
% Reduction of COL1A1 expression [2]: 8.58%
% Reduction of COL5A3 expression [2]: 23.95%
% Reduction of ITGAS expression [2]: 26.21%
% Reduction of THBS2 expression [2]: 21.20%
logFC of ACACA expression [2]: 0.4392
logFC of ACVRL1 expression [2]: -0.7278
logFC of ALDH7A1 expression [2]: 0.6119
logFC of C6 expression [2]: 1.475
logFC of CD34 expression [2]: -0.8356
logFC of CDH5 expression [2]: -1.0568
logFC of CFTR expression [2]: 1.189
logFC of COL4A1 expression [2]: -0.7024
logFC of COL7A1 expression [2]: 0.6703
logFC of COL14A1 expression [2]: -0.7785
logFC of COX4I2 expression [2]: -0.7471
logFC of CXCL2 expression [2]: 0.778
logFC of CXCL12 expression [2]: -0.5918
logFC of CXCR4 expression [2]: -0.8852
logFC of EGFR expression [2]: 0.4764
logFC of F11R expression [2]: 0.5803
logFC of FGF19 expression [2]: -1.14
logFC of GAS1 expression [2]: -0.6419
logFC of GPC4 expression [2]: 0.4613
logFC of GREM1 expression [2]: -0.7447
logFC of HADH expression [2]: 0.4377
logFC of HAVCR1 expression [2]: -0.7313
logFC of ICAM1 expression [2]: 0.4322
logFC of IFNG expression [2]: -0.5853
logFC of KLF5 expression [2]: 0.7343
logFC of KNG1 expression [2]: -1.1
logFC of LYN expression [2]: 0.4785
logFC of MET expression [2]: 1.096
logFC of MMP7 expression [2]: 1.413
logFC of MMRN1 expression [2]: -0.9784
logFC of NOTCH4 expression [2]: -0.7164
logFC of OCLN expression [2]: 0.5956
logFC of PDGFRB expression [2]: -0.7514
logFC of PECAM1 expression [2]: -0.9354
logFC of PSENEN expression [2]: 0.4784
logFC of PTGS2 expression [2]: 0.9466
logFC of RELN expression [2]: -0.8283
logFC of SAA1 expression [2]: 1.653
logFC of TEK expression [2]: -0.8124
logFC of WWC1 expression [2]: 0.8127
